Reference: US7709482B2, “Polycyclic heteroaryl substituted triazoles useful as Axl inhibitors” (Rigel Pharmaceuticals, Inc., priority 2006, dated 2010)

molecular target: T1, Axl (Homo sapiens, UniProt P30530); assay: Phospho-Akt In-Cell Western Assay (inhibition of Axl activity after Axl-antibody cross-linking); type: cell-based; conditions: not given
T1 construct: endogenous in cells; host or cells: HeLa cells
T1 sequence (P30530 26-894): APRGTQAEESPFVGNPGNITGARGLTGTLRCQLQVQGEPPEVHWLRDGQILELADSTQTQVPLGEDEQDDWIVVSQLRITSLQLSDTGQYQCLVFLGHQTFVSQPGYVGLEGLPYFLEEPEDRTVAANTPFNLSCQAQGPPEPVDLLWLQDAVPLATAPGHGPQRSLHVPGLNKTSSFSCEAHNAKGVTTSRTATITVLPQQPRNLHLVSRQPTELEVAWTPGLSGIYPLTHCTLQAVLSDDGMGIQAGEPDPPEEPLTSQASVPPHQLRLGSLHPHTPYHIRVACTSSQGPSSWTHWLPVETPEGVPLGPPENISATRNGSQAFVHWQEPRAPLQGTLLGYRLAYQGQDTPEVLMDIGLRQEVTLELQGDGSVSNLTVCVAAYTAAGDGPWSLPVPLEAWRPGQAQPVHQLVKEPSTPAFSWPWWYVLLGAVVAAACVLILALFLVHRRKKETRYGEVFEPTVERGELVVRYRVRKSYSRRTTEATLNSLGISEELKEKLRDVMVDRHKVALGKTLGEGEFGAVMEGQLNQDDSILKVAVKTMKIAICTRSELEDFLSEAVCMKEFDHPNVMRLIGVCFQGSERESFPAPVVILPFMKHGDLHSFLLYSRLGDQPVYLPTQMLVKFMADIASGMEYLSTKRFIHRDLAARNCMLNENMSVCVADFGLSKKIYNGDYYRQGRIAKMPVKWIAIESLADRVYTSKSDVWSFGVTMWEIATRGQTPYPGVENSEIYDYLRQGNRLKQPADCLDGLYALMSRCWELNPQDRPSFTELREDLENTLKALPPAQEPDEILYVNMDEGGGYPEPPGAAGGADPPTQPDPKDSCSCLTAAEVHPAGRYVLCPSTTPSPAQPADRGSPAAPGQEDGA
Method in brief: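 Phospho-Akt was detected in formaldehyde-fixed cells by in-cell immunostaining with HRP chemiluminescence. Before fixation, HeLa cells kept 24 h in low-serum medium containing 500 ng/mL Axl/Fc received compound for 1 h at 37 °C, followed by 5-min Axl activation through antibody clustering.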

SMILES | IC50 [nM]
Nc1nc(Nc2ccc(N3C4CCC3CC(N3CCCC3)C4)c(F)c2)nn1-c1cc2c(nn1)-c1ccccc1CCC2 (stereo not shown) [Compound 76, 1-(6,7-dihydro-5H-benzo[6,7]cyclohepta[1,2-c]pyridazin-3-yl)-N^3-(3-fluoro-4-(3-(pyrrolidin-1-yl)-8-azabicyclo[3.2.1]oct-8-yl)phenyl)-1H-1,2,4-triazole-3,5-diamine] | < 1000

same assay, conditions: Hela cells, phospho-Akt chemiluminescence normalized to relative cell number; compounds of formula (Ia), Table 1; read-out: IC50

SMILES | IC50 [nM]
COc1ccc2c(c1)CCCc1cc(-n3nc(Nc4ccc(OCCN5CCCC5)c(F)c4)nc3N)nnc1-2 [Compound 56, 1-(6,7-dihydro-5H-9-methoxybenzo[6,7]cyclo-hepta[1,2-c]pyridazin-3-yl)-N^3-(3-fluoro-4-(2-(pyrrolidin-1-yl)ethoxy)phenyl)-1H-1,2,4-triazole-3,5-diamine] | 1000 to 10000
COc1ccc2c(c1)CCCc1cc(-n3nc(Nc4ccc(N5CCN(C6CCCCC6)CC5)c(F)c4)nc3N)nnc1-2 [Compound 57, 1-(6,7-dihydro-5H-9-methoxybenzo[6,7]cyclo-hepta[1,2-c]pyridazin-3-yl)-N^3-(3-fluoro-4-(4-(cyclohexyl)piperazin-1-yl)phenyl)-1H-1,2,4-triazole-3,5-diamine] | > 20000
CN1CCN(C2CCN(c3ccc(Nc4nc(N)n(-c5cc6c(nn5)-c5ccccc5CCC6)n4)cc3F)CC2)CC1 [Compound 58, 1-(6,7-dihydro-5H-benzo[6,7]cyclohepta[1,2-c]pyridazin-3-yl)-N^3-(3-fluoro-4-(4-(4-methylpiperazin-1-yl)piperidin-1-yl)phenyl)-1H-1,2,4-triazole-3,5-diamine] | < 1000
CC1CCN(C2CCN(c3ccc(Nc4nc(N)n(-c5cc6c(nn5)-c5ccccc5CCC6)n4)cc3F)CC2)CC1 [Compound 59, 1-(6,7-dihydro-5H-benzo[6,7]cyclohepta[1,2-c]pyridazin-3-yl)-N^3-(3-fluoro-4-(4-(4-methylpiperidin-1-yl)piperidin-1-yl)phenyl)-1H-1,2,4-triazole-3,5-diamine] | < 1000
CN(CCOc1ccc(Nc2nc(N)n(-c3cc4c(nn3)-c3ccccc3CCC4)n2)cc1)C1CCCC1 [Compound 60, 1-(6,7-dihydro-5H-benzo[6,7]cyclohepta[1,2-c]pyridazin-3-yl)-N^3-(4-(2-(N-methylcyclopentylamino)-ethoxy)phenyl)-1H-1,2,4-triazole-3,5-diamine] | < 1000
CN(C)C1CCN(c2ccc(Nc3nc(N)n(-c4cc5c(nn4)-c4ccccc4CCC5)n3)cc2F)CC1 [Compound 61, 1-(6,7-dihydro-5H-benzo[6,7]cyclohepta[1,2-c]pyridazin-3-yl)-N^3-(3-fluoro-4-(4-dimethylaminopiperidin-1-yl)phenyl)-1H-1,2,4-triazole-3,5-diamine] | < 1000
Nc1nc(Nc2ccc(N3CCC(N4CCCC4)CC3)c(Cl)c2)nn1-c1cc2c(nn1)-c1ccccc1CCC2 [Compound 62, 1-(6,7-dihydro-5H-benzo[6,7]cyclohepta[1,2-c]pyridazin-3-yl)-N^3-(3-chloro-4-(4-pyrrolidin-1-yl-piperidin-1-yl)phenyl)-1H-1,2,4-triazole-3,5-diamine] | < 1000
Nc1nc(Nc2ccc(N3CCC(N4CCCC4)CC3)c(C(F)(F)F)c2)nn1-c1cc2c(nn1)-c1ccccc1CCC2 [Compound 63, 1-(6,7-dihydro-5H-benzo[6,7]cyclohepta[1,2-c]pyridazin-3-yl)-N^3-(3-trifluoromethyl-4-(4-pyrrolidin-1-yl-piperidin-1-yl)phenyl)-1H-1,2,4-triazole-3,5-diamine] | 1000 to 10000
COc1cc2c(cc1OC)-c1nnc(-n3nc(Nc4ccc(N5CCC(N6CCCC6)CC5)c(F)c4)nc3N)cc1CCC2 [Compound 64, 1-(6,7-dihydro-5H-9,10-dimethoxybenzo[6,7]cyclo-hepta[1,2-c]pyridazin-3-yl)-N^3-(3-fluoro-4-(4-pyrrolidin-1-yl-piperidin-1-yl)phenyl)-1H-1,2,4-triazole-3,5-diamine] | 1000 to 10000
COc1cc2c(c(OC)c1OC)-c1nnc(-n3nc(Nc4ccc(N5CCC(N6CCCC6)CC5)c(F)c4)nc3N)cc1CCC2 [Compound 65, 1-(6,7-dihydro-5H-9,10,11-trimethoxybenzo[6,7]cyclo-hepta[1,2-c]pyridazin-3-yl)-N^3-(3-fluoro-4-(4-pyrrolidin-1-yl-piperidin-1-yl)phenyl)-1H-1,2,4-triazole-3,5-diamine] | < 1000
CN1CC2CN(c3ccc(Nc4nc(N)n(-c5cc6c(nn5)-c5ccccc5CCC6)n4)cc3F)CC2C1 (stereo not shown) [Compound 66, 1-(6,7-dihydro-5H-benzo[6,7]cyclohepta[1,2-c]pyridazin-3-yl)-N^3-(3-fluoro-4-(5-methyloctahydro-pyrrolo[3,4-c]pyrrolyl)phenyl)-1H-1,2,4-triazole-3,5-diamine] | < 1000
Nc1nc(Nc2ccc(N3CCCC(N4CCCC4)C3)c(F)c2)nn1-c1cc2c(nn1)-c1ccccc1CCC2 (stereo not shown) [Compound 68, 1-(6,7-dihydro-5H-benzo[6,7]cyclohepta[1,2-c]pyridazin-3-yl)-N^3-(3-fluoro-4-(3-pyrrolidin-1-yl-piperidin-1-yl)phenyl)-1H-1,2,4-triazole-3,5-diamine] | < 1000
Nc1nc(Nc2ccc(N3CCCCC(N4CCCC4)C3)c(F)c2)nn1-c1cc2c(nn1)-c1ccccc1CCC2 (stereo not shown) [Compound 69, 1-(6,7-dihydro-5H-benzo[6,7]cyclohepta[1,2-c]pyridazin-3-yl)-N^3-(3-fluoro-4-(3-pyrrolidin-1-yl-azepan-1-yl)phenyl)-1H-1,2,4-triazole-3,5-diamine] | < 1000
CN1CCC(C2CCN(c3ccc(Nc4nc(N)n(-c5cc6c(nn5)-c5ccccc5CCC6)n4)cc3F)CC2)CC1 [Compound 70, 1-(6,7-dihydro-5H-benzo[6,7]cyclohepta[1,2-c]pyridazin-3-yl)-N^3-(3-fluoro-4-(4-N-methylpiperidin-4-yl-piperidin-1-yl)phenyl)-1H-1,2,4-triazole-3,5-diamine] | < 1000
Nc1nc(Nc2ccc(N3CCC(N4CCCC4)CC3)c(F)c2)nn1-c1cc2c(nn1)CCCc1ccccc1-2 [Compound 71, 1-(6,7-dihydro-5H-benzo[6,7]cyclohepta[4,5-c]pyridazin-2-yl)-N^3-(3-fluoro-4-(4-(pyrrolidinyl)piperidinyl)-phenyl)-1H-1,2,4-triazole-3,5-diamine] | < 1000
CCCN1CC2CN(c3ccc(Nc4nc(N)n(-c5cc6c(nn5)-c5ccccc5CCC6)n4)cc3F)CC2C1 (stereo not shown) [Compound 72, 1-(6,7-dihydro-5H-benzo[6,7]cyclohepta[1,2-c]pyridazin-3-yl)-N^3-(3-fluoro-4-(5-propyl-octahydropyrrolo[3,4-c]pyrrolyl)phenyl)-1H-1,2,4-triazole-3,5-diamine] | < 1000
Nc1nc(Nc2ccc(N3CCN4CCCCCC4C3)c(F)c2)nn1-c1cc2c(nn1)-c1ccccc1CCC2 (stereo not shown) [Compound 73, 1-(6,7-dihydro-5H-benzo[6,7]cyclohepta[1,2-c]pyridazin-3-yl)-N^3-(3-fluoro-4-(decahydropyrazino[1,2-a]azepin-2-yl)phenyl)-1H-1,2,4-triazole-3,5-diamine] | < 1000
Nc1nc(Nc2ccc(N3CC4CN(C5CCCC5)CC4C3)c(F)c2)nn1-c1cc2c(nn1)-c1ccccc1CCC2 (stereo not shown) [Compound 75, 1-(6,7-dihydro-5H-benzo[6,7]cyclohepta[1,2-c]pyridazin-3-yl)-N^3-(3-fluoro-4-(5-cyclopentyloctahydro-pyrrolo[3,4-c]pyrrolyl)phenyl)-1H-1,2,4-triazole-3,5-diamine] | < 1000
Nc1nc(Nc2ccc(N3CCCC(N4CCCC4)CC3)c(F)c2)nn1-c1cc2c(nn1)-c1ccccc1CCC2 (stereo not shown) [Compound 77, 1-(6,7-dihydro-5H-benzo[6,7]cyclohepta[1,2-c]pyridazin-3-yl)-N^3-(3-fluoro-4-(4-pyrrolidin-1-yl-azepan-1-yl)phenyl)-1H-1,2,4-triazole-3,5-diamine] | < 1000
CC(C)N1CCN(C2CCN(c3ccc(Nc4nc(N)n(-c5cc6c(nn5)-c5ccccc5CCC6)n4)cc3F)CC2)CC1 [Compound 80, 1-(6,7-dihydro-5H-benzo[6,7]cyclohepta[1,2-c]pyridazin-3-yl)-N^3-(3-fluoro-4-(4-(4-isopropylpiperazin-1-yl)piperidin-1-yl)phenyl)-1H-1,2,4-triazole-3,5-diamine] | < 1000
CN1CCC2CN(c3ccc(Nc4nc(N)n(-c5cc6c(nn5)-c5ccccc5CCC6)n4)cc3F)CC21 (stereo not shown) [Compound 81, 1-(6,7-dihydro-5H-benzo[6,7]cyclohepta[1,2-c]pyridazin-3-yl)-N^3-(3-fluoro-4-(1-methyl-octahydropyrrolo[3,4-b]pyrrol-5-yl)phenyl)-1H-1,2,4-triazole-3,5-diamine] | < 1000
